Experimental data reported in US12485169B2, “Compounds” (GREY WOLF THERAPEUTICS LIMITED, priority 2018, dated 2025).

target: T1, Purified ERAP1 (37-941)-10His (ERAP1) (Homo sapiens, UniProt Q9NZ08); test: ERAP1 mediated hydrolysis of an amide substrate (10-mer inhibition assay), biochemical system; settings: 10-mer substrate, 23° C., 1 h, excitation 279 nm / emission 355 nm; read-out: IC50 vs Decapeptide WRVYEKC(Dnp)ALK-acid (where Dnp is Dinitrophenyl maleimide) (10-mer)
T1 construct: Purified ERAP1 (37-941)-10His (ERAP1)
Method: However, as ERAP1 hydrolyses the N-terminal amide bond and tryptophan is released this internal quenching is lost and the reaction is monitored by the increase in tryptophan fluorescence over the course of the assay. For the purposes of this application this assay is referred to as the “10mer inhibition assay” and compound potencies are calculated and expressed as IC50 as would be familiar to a person skilled in the art.
Biological Assay 1: ERAP1 Mediated Hydrolysis of an Amide Substrate Measured in a Biochemical System
Decapeptide WRVYEKC(Dnp)ALK-acid (where Dnp is Dinitrophenyl maleimide) (10-mer) L-Leucine 7-amido-4-methylcoumarin (L-AMC)
12.5 μL ERAP1 enzyme in 1×AB was combined with 250 nL test compound in DMSO. […] For detection, plates were read at excitation 365 nm and emission 442 nm (L-AMC) or excitation 279 nm and emission 355 nm (10-mer).

T1 sequence (Q9NZ08 37-941): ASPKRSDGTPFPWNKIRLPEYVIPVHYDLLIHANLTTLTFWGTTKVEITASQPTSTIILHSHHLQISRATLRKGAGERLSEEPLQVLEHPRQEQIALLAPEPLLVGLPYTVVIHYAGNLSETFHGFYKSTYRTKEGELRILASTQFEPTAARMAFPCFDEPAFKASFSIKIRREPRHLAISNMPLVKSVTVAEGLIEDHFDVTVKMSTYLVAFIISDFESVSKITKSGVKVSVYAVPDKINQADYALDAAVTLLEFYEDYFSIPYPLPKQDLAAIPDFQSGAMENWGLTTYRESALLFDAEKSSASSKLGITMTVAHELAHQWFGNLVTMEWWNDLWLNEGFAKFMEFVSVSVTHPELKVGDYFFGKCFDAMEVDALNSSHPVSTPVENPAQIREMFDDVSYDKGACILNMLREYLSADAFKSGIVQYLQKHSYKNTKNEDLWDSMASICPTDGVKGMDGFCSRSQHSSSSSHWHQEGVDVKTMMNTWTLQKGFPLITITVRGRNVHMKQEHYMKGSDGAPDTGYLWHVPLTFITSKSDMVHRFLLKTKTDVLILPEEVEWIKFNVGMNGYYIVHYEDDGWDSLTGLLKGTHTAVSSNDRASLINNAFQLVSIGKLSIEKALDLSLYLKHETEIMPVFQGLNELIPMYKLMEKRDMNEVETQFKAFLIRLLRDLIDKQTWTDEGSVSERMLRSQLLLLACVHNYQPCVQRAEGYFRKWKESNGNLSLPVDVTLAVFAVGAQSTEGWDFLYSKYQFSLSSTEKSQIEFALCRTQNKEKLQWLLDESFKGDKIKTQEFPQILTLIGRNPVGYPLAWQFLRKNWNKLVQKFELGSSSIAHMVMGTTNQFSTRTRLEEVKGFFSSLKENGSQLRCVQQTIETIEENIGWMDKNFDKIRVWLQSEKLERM

Row | IC50 | Structure (SMILES)
1 | < 500 nM | COc1ccc(C(=O)O)cc1S(=O)(=O)Nc1cc(C(F)(F)F)ccc1N1CCC(OC)C(C)(C)C1 (stereo not shown) [Example 16, 4-methoxy-3-(N-(2-(4-methoxy-3,3-dimethylpiperidin-1-yl)-5-(trifluoromethyl)phenyl)sulfamoyl)benzoic acid]
2 | > 5000 nM | COc1ccc(C(=O)O)cc1S(=O)(=O)Nc1cc(C(F)(F)F)ccc1N1CCC(O)(C(F)(F)F)CC1 [Example 17, 3-(N-(2-(4-hydroxy-4-(trifluoromethyl)piperidin-1-yl)-5-(trifluoromethyl)phenyl)sulfamoyl)-4-methoxybenzoic acid]
3 | < 5000 nM | COc1ccc(C(=O)O)cc1S(=O)(=O)Nc1cc(C(F)(F)F)ccc1N1CC(C)(O)C1 [Example 18, 3-(N-(2-(3-hydroxy-3-methylazetidin-1-yl)-5-(trifluoromethyl)phenyl)sulfamoyl)-4-methoxybenzoic acid]
4 | < 5000 nM | COc1ccc(C(=O)O)cc1S(=O)(=O)Nc1cc(C(F)(F)F)ccc1N1CC2(CCO2)C1 [Example 19, 3-(N-(2-(1-oxa-6-azaspiro[3.3]heptan-6-yl)-5-(trifluoromethyl)phenyl)sulfamoyl)-4-methoxybenzoic acid]
5 | < 5000 nM | COc1ccc(C(=O)O)cc1S(=O)(=O)Nc1cc(C(F)(F)F)ccc1N1CCC(C)(O)C1 (stereo not shown) [Example 20, 3-(N-(2-(3-hydroxy-3-methylpyrrolidin-1-yl)-5-(trifluoromethyl)phenyl)sulfamoyl)-4-methoxybenzoic acid]
6 | > 5000 nM | COc1ccc(C(=O)O)cc1S(=O)(=O)Nc1cc(C(F)(F)F)ccc1N1CC(O)(C2CC2)C1 [Example 21, 3-(N-(2-(3-cyclopropyl-3-hydroxyazetidin-1-yl)-5-(trifluoromethyl)phenyl)sulfamoyl)-4-methoxybenzoic acid]
7 | > 5000 nM | COc1ccc(C(=O)O)cc1S(=O)(=O)Nc1cc(C(F)(F)F)ccc1N1CC(C)(OC)C1 [Example 22, 4-methoxy-3-(N-(2-(3-methoxy-3-methylazetidin-1-yl)-5-(trifluoromethyl)phenyl)sulfamoyl)benzoic acid]
8 | > 5000 nM | COc1ccc(C(=O)O)cc1S(=O)(=O)Nc1cc(C(F)(F)F)ccc1N1[C@@H]2CC[C@H]1C[C@@H](O)C2 [Example 23, 3-(N-(2-(endo-3-hydroxy-8-azabicyclo [3.2.1]octan-8-yl)-5-(trifluoromethyl)phenyl)sulfamoyl)-4-methoxybenzoic acid]
9 | < 500 nM | COc1ccc(C(=O)O)cc1S(=O)(=O)Nc1cc(C(F)(F)F)ccc1N1CCC(O)C(C)(C)C1 (stereo not shown) [Example 24, 3-(N-(2-(4-hydroxy-3,3-dimethylpiperidin-1-yl)-5-(trifluoromethyl)phenyl)sulfamoyl)-4-methoxybenzoic acid]
10 | < 5000 nM | COc1ccc(C(=O)O)cc1S(=O)(=O)Nc1cc(C(F)(F)F)ccc1N1C[C@H]2CCCC[C@H]2C1 [Example 25, 4-methoxy-3-(N-(2-(cis-octahydroisoindol-2-yl)-5-(trifluoromethyl)phenyl)sulfamoyl)benzoic acid]
11 | < 500 nM | COc1ccc(C(=O)O)cc1S(=O)(=O)Nc1cc(C(F)(F)F)ccc1N1CC(O)(C(F)(F)F)C1 [Example 26, 3-(N-(2-(3-hydroxy-3-(trifluoromethyl)azetidin-1-yl)-5-(trifluoromethyl)phenyl)sulfamoyl)-4-methoxybenzoic acid]
12 | < 5000 nM | COc1ccc(C(=O)O)cc1S(=O)(=O)Nc1cc(C(F)(F)F)ccc1N1CC[C@@H](O)[C@@H](F)C1 [Example 27, 3-(N-(2-((3S,4R)-3-fluoro-4-hydroxypiperidin-1-yl)-5-(trifluoromethyl)phenyl)sulfamoyl)-4-methoxybenzoic acid]
13 | < 500 nM | COc1ccc(C(=O)O)cc1S(=O)(=O)Nc1cc(C(F)(F)F)ccc1N1CCC(C)(O)CC1 [Example 28, 3-(N-(2-(4-hydroxy-4-methylpiperidin-1-yl)-5-(trifluoromethyl)phenyl)sulfamoyl)-4-methoxybenzoic acid]
14 | < 500 nM | COc1ccc(C(=O)O)cc1S(=O)(=O)Nc1cc(C(F)(F)F)ccc1N1CCCC(C)(O)C1 (stereo not shown) [Example 29, 3-(N-(2-(3-hydroxy-3-methylpiperidin-1-yl)-5-(trifluoromethyl)phenyl)sulfamoyl)-4-methoxybenzoic acid]
15 | < 500 nM | CCc1ccc(C(=O)O)cc1S(=O)(=O)Nc1cc(C(F)(F)F)ccc1N1C[C@H](C)C[C@H](C)C1 [Example 30]
16 | < 500 nM | COc1ccc(C(=O)O)cc1S(=O)(=O)Nc1cc(C(F)(F)F)ccc1N1CCCCC1(C)C [Example 31, 3-(N-(2-(2,2-dimethylpiperidin-1-yl)-5-(trifluoromethyl)phenyl)sulfamoyl)-4-methoxybenzoic acid]
17 | < 500 nM | COc1ccc(C(=O)O)cc1S(=O)(=O)Nc1cc(C(F)(F)F)ccc1N1CCCOCC1 [Example 32, 3-(N-(2-(1,4-oxazepan-4-yl)-5-(trifluoromethyl)phenyl)sulfamoyl)-4-methoxybenzoic acid]

Row | IC50 | Structure (SMILES)
18 | < 500 nM | COc1ccc(C(=O)O)cc1S(=O)(=O)Nc1cc(C(F)(F)F)ccc1N1CCC2(CC1)OCc1ccccc12 [Example 33, 3-(N-(2-(spiro[isobenzofuran-1,4′-piperidin]-1′-yl)-5-(trifluoromethyl)phenyl)sulfamoyl)-4-methoxybenzoic acid]
19 | > 5000 nM | COc1ccc(C(=O)O)cc1S(=O)(=O)Nc1cc(C(F)(F)F)ccc1N1CCN(C(C)=O)CC1 [Example 34, 3-(N-(2-(4-acetylpiperazin-1-yl)-5-(trifluoromethyl)phenyl)sulfamoyl)-4-methoxybenzoic acid]
20 | < 500 nM | COc1ccc(C(=O)O)cc1S(=O)(=O)Nc1cc(C(F)(F)F)ccc1N1CCC(O)CC1 [Example 35, 3-(N-(2-(4-hydroxypiperidin-1-yl)-5-(trifluoromethyl)phenyl)sulfamoyl)-4-methoxybenzoic acid]
21 | < 5000 nM | COc1ccc(C(=O)O)cc1S(=O)(=O)Nc1cc(C(F)(F)F)ccc1N1CCC(O)C1 (stereo not shown) [Example 36, 3-(N-(2-(3-hydroxypyrrolidin-1-yl)-5-(trifluoromethyl)phenyl)sulfamoyl)-4-methoxybenzoic acid]
22 | < 5000 nM | COc1ccc(C(=O)O)cc1S(=O)(=O)Nc1cc(C(F)(F)F)ccc1N1CC(O)C1 [Example 37, 3-(N-(2-(3-hydroxyazetidin-1-yl)-5-(trifluoromethyl)phenyl)sulfamoyl)-4-methoxybenzoic acid]
23 | < 5000 nM | COc1ccc(C(=O)O)cc1S(=O)(=O)Nc1cc(C(F)(F)F)ccc1N1CCC(C)(C)C1 [Example 39, 3-(N-(2-(3,3-dimethylpyrrolidin-1-yl)-5-(trifluoromethyl)phenyl)sulfamoyl)-4-methoxybenzoic acid]
24 | < 5000 nM | COc1ccc(C(=O)O)cc1S(=O)(=O)Nc1cc(C(F)(F)F)ccc1N1CCN2CCC[C@@H]2C1 [Example 40, (R)-3-(N-(2-(hexahydropyrrolo[1,2-a]pyrazin-2(1H)-yl)-5-(trifluoromethyl)phenyl)sulfamoyl)-4-methoxybenzoic acid]
25 | < 500 nM | COc1ccc(C(=O)O)cc1S(=O)(=O)Nc1cc(C(F)(F)F)ccc1N1CCCCC1=O [Example 41, 4-methoxy-3-(N-(2-(2-oxopiperidin-1-yl)-5-(trifluoromethyl)phenyl)sulfamoyl)benzoic acid]
26 | > 5000 nM | Cc1ccc(C(=O)O)cc1S(=O)(=O)Nc1cc(C(F)(F)F)ccc1N1CCCOCC1 [Example 42, 3-(N-(2-(1,4-oxazepan-4-yl)-5-(trifluoromethyl)phenyl)sulfamoyl)-4-methylbenzoic acid]
27 | < 500 nM | CCc1ccc(C(=O)O)cc1S(=O)(=O)Nc1cc(C(F)(F)F)ccc1N1CCCOCC1 [Example 43, 3-(N-(2-(1,4-oxazepan-4-yl)-5-(trifluoromethyl)phenyl)sulfamoyl)-4-ethylbenzoic acid]
28 | < 5000 nM | COc1ccc(C(=O)O)cc1S(=O)(=O)Nc1cc(C(F)(F)F)ccc1N1CCCC1c1cc(C)no1 (stereo not shown) [Example 46, 4-methoxy-3-(N-(2-(2-(3-methylisoxazol-5-yl)pyrrolidin-1-yl)-5-(trifluoromethyl)phenyl)sulfamoyl)benzoic acid]
29 | < 500 nM | COc1ccc(C(=O)O)cc1NS(=O)(=O)c1cc(C(F)(F)F)ccc1N1CCCCC1 [Example 49, 4-methoxy-3-((2-(piperidin-1-yl)-5-(trifluoromethyl)phenyl)sulfonamido)benzoic acid]
30 | < 500 nM | COc1ccc(C(=O)O)cc1NS(=O)(=O)c1cc(C(F)(F)F)ccc1N(C)C [Example 51, 3-((2-(dimethylamino)-5-(trifluoromethyl)phenyl)sulfonamido)-4-methoxybenzoic acid]
31 | < 5000 nM | COc1ccc(C(=O)O)cc1NS(=O)(=O)c1cc(C(F)(F)F)ccc1N1CCOCC1 [Example 52, 4-methoxy-3-((2-morpholino-5-(trifluoromethyl)phenyl)sulfonamido)benzoic acid]
32 | < 500 nM | COc1ccc(C(=O)O)cc1S(=O)(=O)Nc1cc(C(F)(F)F)ccc1N1CCCCC1 [Example 54, 4-methoxy-3-(N-(2-(piperidin-1-yl)-5-(trifluoromethyl)phenyl)sulfamoyl)benzoic acid]
33 | < 500 nM | CC(C)c1ccc(C(=O)O)cc1S(=O)(=O)Nc1cc(C(F)(F)F)ccc1N1CCCCCC1 [Example 55, 3-(N-(2-(azepan-1-yl)-5-(trifluoromethyl)phenyl)sulfamoyl)-4-isopropylbenzoic acid]
34 | < 500 nM | O=C(O)c1cc(F)cc(S(=O)(=O)Nc2cc(C(F)(F)F)ccc2N2CCCCC2)c1 [Example 59, 3-fluoro-5-(N-(2-(piperidin-1-yl)-5-(trifluoromethyl)phenyl)sulfamoyl)benzoic acid]
